#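 Grown in 96-well plates, cells were treated for 48 hours with each compound at five concentrations. Insufficient inhibition: endpoint recorded as highest concentration tested. The concentration for 50% growth inhibition is given as GI50.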 Activity calls are given as the source filed them. Cut-off read from the data, not from the text of the source: active = GI50 up to about 1.1 µM and inactive = higher.
# Key:
# Assay in all cases: DTP human tumour cell line panel, 48 h
# [1] = test system: HCT-116
# [2] = test system: RXF 393
# [3] = test system: SNB-19
# [4] = test system: HOP-62
# [5] = test system: A549
# [6] = test system: CAKI-1
# [7] = test system: HL-60
# [8] = test system: NCI-H460
# [9] = test system: SNB-75
# [10] = test system: KM12
# [11] = test system: SK-MEL-5
# [12] = test system: NCI-H522
# [13] = test system: 786-0
# [14] = test system: MCF7
# [15] = test system: OVCAR-5
# [16] = test system: HCC 2998
# [17] = test system: OVCAR-8
# [18] = test system: COLO 205
# [19] = test system: MOLT-4
# [20] = test system: U-251
# [21] = test system: SK-MEL-28
# [22] = test system: NCI/ADR-RES
# [23] = test system: HT-29
# [24] = test system: Hs-578T
# [25] = test system: UO-31
# [26] = test system: ACHN
# [27] = test system: OVCAR-4
# [28] = test system: PC-3
# [29] = test system: IGROV-1
# [30] = test system: CCRF-CEM
# [31] = test system: UACC-257
# [32] = test system: SK-OV-3
# [33] = test system: A498
# [34] = test system: LOX IMVI
# [35] = test system: OVCAR-3
# [36] = test system: HCT-15
# [37] = test system: SF-295
# [38] = test system: SK-MEL-2
# [39] = test system: T47D
# [40] = test system: M14
# [41] = test system: EKVX
# [42] = test system: SF-539
# [43] = test system: SN12C
# [44] = test system: NCI-H226
# [45] = test system: K562
# [46] = test system: TK-10
# [47] = test system: MDA-MB-231
# [48] = test system: SW-620
# [49] = test system: SF-268
# [50] = test system: NCI-H23
# [51] = test system: Malme-3M
# [52] = test system: MDA-N
# [53] = test system: RPMI-8226
# [54] = test system: BT-549
# [55] = test system: MDA-MB-435
# [56] = test system: HOP-92
# [57] = test system: UACC-62
# [58] = test system: SR
# [59] = test system: DU-145
compound,measurement,setting,value
O=c1[nH]nc(-c2ccc([N+](=O)[O-])cc2)n1/N=C/c1ccc([N+](=O)[O-])cc1,GI50,[1],> 100 µM (inactive)
same,GI50,[2],56.9 µM (inactive)
same,GI50,[3],> 100 µM (inactive)
same,GI50,[4],> 100 µM (inactive)
same,GI50,[5],90.8 µM (inactive)
same,GI50,[6],> 100 µM (inactive)
same,GI50,[7],30.4 µM (inactive)
same,GI50,[8],30.4 µM (inactive)
same,GI50,[9],> 100 µM (inactive)
same,GI50,[10],55.3 µM (inactive)
same,GI50,[11],48.4 µM (inactive)
same,GI50,[12],73.3 µM (inactive)
same,GI50,[13],78.7 µM (inactive)
same,GI50,[14],47.9 µM (inactive)
same,GI50,[15],> 100 µM (inactive)
same,GI50,[16],> 100 µM (inactive)
same,GI50,[17],> 100 µM (inactive)
same,GI50,[18],> 100 µM (inactive)
same,GI50,[19],23.6 µM (inactive)
same,GI50,[20],71.4 µM (inactive)
same,GI50,[21],> 100 µM (inactive)
same,GI50,[22],64.7 µM (inactive)
same,GI50,[23],74 µM (inactive)
same,GI50,[24],> 100 µM (inactive)
same,GI50,[25],> 100 µM (inactive)
same,GI50,[26],> 100 µM (inactive)
same,GI50,[27],52.1 µM (inactive)
same,GI50,[28],57.9 µM (inactive)
same,GI50,[29],> 100 µM (inactive)
same,GI50,[30],45 µM (inactive)
same,GI50,[31],> 100 µM (inactive)
same,GI50,[32],> 100 µM (inactive)
same,GI50,[33],> 100 µM (inactive)
same,GI50,[34],0.483 µM (active)
same,GI50,[35],> 100 µM (inactive)
same,GI50,[36],73.8 µM
same,GI50,[37],> 100 µM (inactive)
same,GI50,[38],> 100 µM (inactive)
same,GI50,[39],> 100 µM (inactive)
same,GI50,[40],> 100 µM (inactive)
same,GI50,[41],> 100 µM (inactive)
same,GI50,[42],> 100 µM (inactive)
same,GI50,[43],> 100 µM (inactive)
same,GI50,[44],> 100 µM (inactive)
same,GI50,[45],43.7 µM (inactive)
same,GI50,[46],> 100 µM (inactive)
same,GI50,[47],> 100 µM (inactive)
same,GI50,[48],> 100 µM (inactive)
same,GI50,[49],72.9 µM (inactive)
same,GI50,[50],60.7 µM (inactive)
same,GI50,[51],> 100 µM (inactive)
same,GI50,[52],> 100 µM (inactive)
same,GI50,[53],38.5 µM (inactive)
same,GI50,[54],> 100 µM (inactive)
same,GI50,[55],99.5 µM (inactive)
same,GI50,[56],> 100 µM (inactive)
same,GI50,[57],71.4 µM (inactive)
same,GI50,[58],52 µM (inactive)
same,GI50,[59],> 100 µM (inactive)
CCC1NC(=O)C1NC(=O)OC (stereo unspecified),GI50,[1],> 100 µM (inactive)
same,GI50,[2],> 100 µM (inactive)
same,GI50,[3],> 100 µM (inactive)
same,GI50,[4],> 100 µM (inactive)
same,GI50,[6],> 100 µM (inactive)
same,GI50,[7],> 100 µM (inactive)
same,GI50,[8],> 100 µM (inactive)
same,GI50,[9],> 100 µM (inactive)
same,GI50,[10],> 100 µM (inactive)
same,GI50,[11],> 100 µM (inactive)
same,GI50,[12],> 100 µM (inactive)
same,GI50,[13],> 100 µM (inactive)
same,GI50,[14],> 100 µM (inactive)
same,GI50,[15],> 100 µM (inactive)
same,GI50,[16],> 100 µM (inactive)
same,GI50,[17],> 100 µM (inactive)
same,GI50,[18],> 100 µM (inactive)
same,GI50,[19],> 100 µM (inactive)
same,GI50,[20],> 100 µM (inactive)
same,GI50,[21],> 100 µM (inactive)
same,GI50,[22],> 100 µM (inactive)
same,GI50,[23],> 100 µM (inactive)
same,GI50,[24],> 100 µM (inactive)
same,GI50,[25],> 100 µM (inactive)
same,GI50,[26],> 100 µM (inactive)
same,GI50,[27],> 100 µM (inactive)
same,GI50,[28],> 100 µM (inactive)
same,GI50,[29],> 100 µM (inactive)
same,GI50,[30],> 100 µM (inactive)
same,GI50,[31],> 100 µM (inactive)
same,GI50,[32],> 100 µM (inactive)
same,GI50,[33],> 100 µM (inactive)
same,GI50,[34],> 100 µM (inactive)
same,GI50,[35],> 100 µM (inactive)
same,GI50,[36],> 100 µM
same,GI50,[37],> 100 µM (inactive)
same,GI50,[38],> 100 µM (inactive)
same,GI50,[39],> 100 µM (inactive)
same,GI50,[40],> 100 µM (inactive)
same,GI50,[41],> 100 µM (inactive)
same,GI50,[42],> 100 µM (inactive)
same,GI50,[43],> 100 µM (inactive)
same,GI50,[44],> 100 µM (inactive)
same,GI50,[45],> 100 µM (inactive)
same,GI50,[46],> 100 µM (inactive)
same,GI50,[47],> 100 µM (inactive)
same,GI50,[48],> 100 µM (inactive)
same,GI50,[50],> 100 µM (inactive)
same,GI50,[51],> 100 µM (inactive)
same,GI50,[52],> 100 µM (inactive)
same,GI50,[53],> 100 µM (inactive)
same,GI50,[54],> 100 µM (inactive)
same,GI50,[55],> 100 µM (inactive)
same,GI50,[56],> 100 µM (inactive)
same,GI50,[57],> 100 µM (inactive)
same,GI50,[58],> 100 µM (inactive)
same,GI50,[59],> 100 µM (inactive)

# — ChEMBL document CHEMBL1201862, “PubChem BioAssay data set” (2004)
